The record followed here is patent US8609711B2, “Crystalline N-{(1S)-2-amino-1-[(3-fluorophenyl)methyl]ethyl}-5-chloro-4-(4-chloro-1-methyl-1H-pyrazol-5-yl)-2-thiophenecarboxamic hydrochloride” (GlaxoSmithKline LLC, priority 2009, dated 2013).

The series is described as follows: Hygroscopicity, VTI instrument SGA 100. The conditions noted are these: for weight increase (moisture): 25 °C; for hygroscopicity (in words): hydrochloride.

Entries after “also recorded” stand apart in the source; their conditions may differ.

Source text: There were 24 Relative Humidity steps used. The Relative Humidity at each step is as follows.

Turning to `Cl.Cn1ncc(Cl)c1-c1cc(C(=O)N[C@H](CN)Cc2cccc(F)c2)sc1Cl` [Example 3], the “hygroscopicity (in words)” value is “hygroscopic; also recorded: high level of hygroscopicity”. Besides, the “weight increase (moisture)” value (drying at 60 °C, 19 relative humidity steps between 0 and 90, max equilibrium time 300 min) is given as “more than 18 % w/w”.
`Cl.Cn1ncc(Cl)c1-c1cc(C(=O)N[C@H](CN)Cc2cccc(F)c2)sc1Cl` [Compound A]: the “hygroscopicity (in words)” value was “non-hygroscopic; also recorded: low level of hygroscopicity”. The “weight increase (moisture)” value (no drying, 24 relative humidity steps between 5 and 90, max equilibrium time 240 min) is “less than 1 % w/w”.
